Test results as given in ChEMBL document CHEMBL1147421, “Diamine derivatives with antiparasitic activities” (Bioorg Med Chem Lett, 2004).
pEC50: −log10 of the molar value. Where “and” joins values, the source holds several entries; their conditions need not be identical. Identical values can stand only once.

Columns and labels:
Plasmodium falciparum [1] = experiment: Antiparasitic activity against chloroquine-resistant Plasmodium falciparum W2; format: functional, organism-based
Plasmodium falciparum [2] = experiment: Antiparasitic activity against Plasmodium falciparum D6; format: functional, organism-based
[3] = Effective concentration expressed as antiparasitic activity against Leishmania promastigotes (Leishmania donovani); NA = Not active; format: functional
[4] = Antiparasitic activity against Leishmania promastigotes (Leishmania donovani); format: functional

Row | Structure (SMILES) | EC50 (Plasmodium falciparum [1]) | EC50 (Plasmodium falciparum [2]) | EC50 [3] | pEC50 (Plasmodium falciparum [1]; Plasmodium falciparum) | pEC50 [4] | pEC50 (Plasmodium falciparum [1]) | pEC50 (Plasmodium falciparum [2]; Plasmodium falciparum) | pEC50 (Plasmodium falciparum [2])
1 | COc1ccc(CN(CCCCN)Cc2ccc(OC)c(O)c2)cc1O.O=C(O)C(F)(F)F | Not Active | Not Active | Not Active |  |  |  |  | 
2 | COc1ccc(CN(CCCN)Cc2ccc(OC)c(O)c2)cc1O.O=C(O)C(F)(F)F | Not Active | Not Active | Not Active |  |  |  |  | 
3 | NCCCN(Cc1ccccc1)Cc1ccc(Cc2ccncc2)cc1.O=C(O)C(F)(F)F | Not Active | Not Active | Not Active |  |  |  |  | 
4 | COc1cc(CN(CCCN)Cc2ccc(O)c(OC)c2)ccc1O.O=C(O)C(F)(F)F | Not Active | Not Active | Not Active |  |  |  |  | 
5 | NCCCCN(Cc1ccc(O)cc1)Cc1ccc(O)cc1.O=C(O)C(F)(F)F | Not Active | Not Active | Not Active |  |  |  |  | 
6 | NCCCN(Cc1ccncc1)Cc1ccncc1.O=C(O)C(F)(F)F | Not Active | Not Active | Not Active |  |  |  |  | 
7 | NCCCN(Cc1ccccc1)Cc1ccc(Cl)cc1.O=C(O)C(F)(F)F |  | Not Active |  | 5.11 | 5.73 |  |  | 
8 | NCCCN(Cc1ccc(O)cc1)Cc1ccc(O)cc1.O=C(O)C(F)(F)F | Not Active | Not Active | Not Active |  |  |  |  | 
9 | CCCCOc1ccc(CN(CCCCN)Cc2ccc(OCCCC)cc2)cc1 |  |  |  | 5.38 | 5.61 and 5.41 | 5.54 | 5.39 | 
10 | CCCCOc1ccc(CN(CCCN)Cc2ccc(OCCCC)cc2)cc1 |  |  |  | 5.18 | 5.91 and 5.90 | 5.19 | 5.36 | 5.39
11 | NCCCCN(Cc1ccc(OCc2c(F)c(F)c(F)c(F)c2F)cc1)Cc1ccc(OCc2c(F)c(F)c(F)c(F)c2F)cc1 |  |  |  | 5.67 | 5.60 and 5.53 | 5.68 | 6.17 | 
12 | NCCCCN(Cc1ccc(OCc2ccc(Cl)c(Cl)c2)cc1)Cc1ccc(OCc2ccc(Cl)c(Cl)c2)cc1 |  |  |  |  | 5.42 and 5.44 | 5.59 and 6.16 | 5.94 | 
13 | COc1ccc(CN(CCCCN)Cc2ccccc2)cc1OC.O=C(O)C(F)(F)F |  | Not Active |  | 5.44 | 5.08 |  |  | 
14 | NCCCCN(Cc1ccccc1)Cc1ccc(C(=O)O)cc1.O=C(O)C(F)(F)F | Not Active | Not Active |  |  | 4.99 |  |  | 
15 | COc1ccc(CN(CCCCN)Cc2ccccc2)cc1.O=C(O)C(F)(F)F |  | Not Active |  | 5.65 | 5.84 |  |  | 
16 | Cc1ccc(COc2ccc(CN(CCCN)Cc3ccc(OCc4ccc(C)cc4)cc3)cc2)cc1 |  |  |  | 5.44 | 5.92 and 5.97 | 5.34 | 5.85 | 5.85
17 | NCCCCN(Cc1ccccc1)Cc1ccncc1.O=C(O)C(F)(F)F | Not Active | Not Active | Not Active |  |  |  |  | 
18 | NCCCN(Cc1ccc(-c2ccc(Br)cc2)o1)Cc1ccc(-c2ccc(Br)cc2)o1.O=C(O)C(F)(F)F | Not Active |  |  |  | 5.07 |  | 5.25 | 
19 | COc1ccc(CN(CCCN)Cc2ccccc2)cc1OC.O=C(O)C(F)(F)F |  | Not Active |  | 5.25 | 5.40 |  |  | 
20 | COc1cc(CN(CCCCN)Cc2ccc(OCc3ccccc3)c(OC)c2)ccc1OCc1ccccc1 |  |  |  | 5.77 | 5.74 |  | 5.97 | 
21 | COc1ccc(CN(CCCCN)Cc2ccc(OC)cc2OC)c(OC)c1.O=C(O)C(F)(F)F | Not Active |  | Not Active |  |  |  | 5.11 | 
